Measured values: patent publication US12097241B2, “Methods of treating kidney failure, and/or improving or stablizing renal function using modified relaxin polypeptides” (BRISTOL-MYERS SQUIBB COMPANY, priority 2017, dated 2024)
“Also recorded” adds a separate entry of the source. Marks after values point to notes of the source that are not given here. Square brackets hold non-standard residues; d marks the D form. Ends that are not written are not given here. Phe(4-Ac) = CC(=O)c1ccc(C[C@H](N)C(=O)O)cc1

Legend:
[1] = Rat renal blood flow studies; type: in vivo, Sprague Dawley rats; settings: 1 mg/kg intravenously; for % change in RBF over baseline: anesthetized male Sprague Dawley rats, renal blood flow recorded for 45 min
Method: Male Sprague Dawley rats (˜250-300 g) were anesthetized with sodium pentobarbital (50 mg/kg), the trachea was cannulated with PE-205 tubing to maintain airway patency, and temperature was maintained at 37° C. with a heated surgical plate. A 1.4 F pressure catheter (Millar Inc., Houston, TX) was advanced into the right carotid artery to measure aortic blood pressure. The right jugular vein was cannulated with PE-50 tubing for administration of test articles. The left kidney was exposed by a retroperitoneal incision, and a Doppler flow probe (Model 0.5 VB, Transonic System Inc., Ithaca, NY) was attached to the left renal artery to monitor blood flow. Sodium pentobarbital (15 mg/kg, intraperitoneal) was supplemented after completion of these surgical procedures. Following a 10-15 min equilibration, the relaxin was administered at 1 mg/kg intravenously in a dosing volume of 0.15 to 1.82 mL/kg over 30 seconds via an infusion pump (Harvard Apparatus, Holliston, MA). Blood pressure, heart rate and renal blood flow were continuously recorded for 45 min after relaxin administration using a Millar MPVS Ultra Signal Conditioning unit connected to a desktop computer running LabChart 7-Pro data acquisition software (ADInstruments, Dunedin, New Zealand) (Table 5). Table 5. Rat renal blood flow changes (abbreviations as in Table 3).

[2] = In vivo pharmacokinetic (PK) studies in rats; design: species or system Sprague-Dawley rats; settings: rats, SC dose 1.0 mg/kg, adjusted from 0.2 mpk
In short: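 Male Sprague-Dawley rats (n=3) given a single 1 mg/kg IV or SC dose of relaxin constructs in 20 mM histidine, 750 mM NaCl, pH 6.0; jugular serum sampled to 72 h. Serum relaxin by ELISA; Cmax, AUCinf, C24 and half-life from non-compartmental analysis of individual profiles.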

| Compound | % change in RBF over baseline [1] | effect on renal blood flow (in words) ([1]; rats, 1 mg/kg) | death of animals after administration ([1]; rats, necropsy pale kidneys, 1 mg/kg) | Rat PK AUC Total [2] | level at time molar at 24 h ([2]; read-out: Rat PK C24) | effect on renal blood flow (in words) ([1]; rats) |
| --- | --- | --- | --- | --- | --- | --- |
| CC[C@H](C)[C@@H]1NC(=O)[C@H](C)NC(=O)[C@H]([C@@H](C)CC)NC(=O)[C@H](CCC(N)=O)NC(=O)[C@H](C)NC(=O)[C@H](CCCNC(=N)N)NC(=O)[C@H](C(C)C)NC(=O)[C@H](CC(C)C)NC(=O)[C@H](CCC(=O)O)NC(=O)[C@H](CCCNC(=N)N)NC(=O)CNC(=O)[C@@H](NC(=O)[C@H](CC(C)C)NC(=O)[C@H](CCCCN)NC(=O)[C@@H](NC(=O)[C@@H](NC(=O)[C@H](CCC(=O)O)NC(=O)[C@H](CCC(=O)O)NC(=O)[C@H](CCSC)NC(=O)[C@H](Cc2c[nH]c3ccccc23)NC(=O)[C@H](CO)NC(=O)[C@H](C)N)C(C)C)[C@@H](C)CC)CSSC[C@@H]2NC(=O)[C@@H](NC(=O)[C@H](CCCCN)NC(=O)[C@H](CC(N)=O)NC(=O)[C@H](C)NC(=O)[C@H](CC(C)C)NC(=O)[C@H](C)NC(=O)[C@H](CO)NC(=O)[C@H](Cc3ccc(O)cc3)NC(=O)[C@H](CC(C)C)NC(=O)[C@@H](N)Cc3ccc(/C(C)=N/OCCNC(=O)CC[C@H](NC(=O)CCCCCCCCCCCCC(=O)O)C(=O)O)cc3)CSSC[C@H](NC(=O)CNC(=O)[C@H](C(C)C)NC(=O)[C@H](Cc3c[nH]cn3)NC2=O)C(=O)N[C@@H]([C@@H](C)O)C(=O)N[C@@H](CCCCN)C(=O)N[C@@H](CCCNC(=N)N)C(=O)N[C@@H](CO)C(=O)N[C@@H](CC(C)C)C(=O)N[C@@H](C)C(=O)N[C@@H](CCCNC(=N)N)C(=O)N[C@@H](Cc2ccccc2)C(=O)N[C@H](C(=O)O)CSSC[C@@H](C(=O)NCC(=O)N[C@@H](CCSC)C(=O)N[C@@H](CO)C(=O)N[C@H](C(=O)N[C@@H](Cc2c[nH]c3ccccc23)C(=O)N[C@@H](CO)C(=O)O)[C@@H](C)O)NC1=O [AQ1-Glu-C13-COOH] | +14^b % |  |  |  |  |  |
| CCCCCCCCCCCCCC(=O)N[C@@H](CCC(=O)NCCOCCOCCOCCOCCOCCOCCOCCOCCOCCOCCOCCOCCOCCOCCOCCOCCOCCOCCOCCOCCOCCOCCOCCOCCOCCOCCOCCOCCOCCOCCOCCOCCOCCOCCOCCOCCC(=O)NCCO/N=C(\C)c1ccc(C[C@H](N)C(=O)N[C@@H](CC(C)C)C(=O)N[C@@H](Cc2ccc(O)cc2)C(=O)N[C@@H](CO)C(=O)N[C@@H](C)C(=O)N[C@@H](CC(C)C)C(=O)N[C@@H](C)C(=O)N[C@@H](CC(N)=O)C(=O)N[C@@H](CCCCN)C(=O)N[C@H]2CSSC[C@@H]3NC(=O)CNC(=O)[C@H](C(C)C)NC(=O)[C@H](Cc4c[nH]cn4)NC(=O)[C@H](CSSC[C@H](NC(=O)[C@H](CC(C)C)NC(=O)[C@H](CCCCN)NC(=O)[C@@H](NC(=O)[C@@H](NC(=O)[C@H](CCC(=O)O)NC(=O)[C@H](CCC(=O)O)NC(=O)[C@H](CCSC)NC(=O)[C@H](Cc4c[nH]c5ccccc45)NC(=O)[C@H](CO)NC(=O)[C@H](C)N)C(C)C)[C@@H](C)CC)C(=O)NCC(=O)N[C@@H](CCCNC(=N)N)C(=O)N[C@@H](CCC(=O)O)C(=O)N[C@@H](CC(C)C)C(=O)N[C@@H](C(C)C)C(=O)N[C@@H](CCCNC(=N)N)C(=O)N[C@@H](C)C(=O)N[C@@H](CCC(N)=O)C(=O)N[C@@H]([C@@H](C)CC)C(=O)N[C@@H](C)C(=O)N[C@@H]([C@@H](C)CC)C(=O)N[C@H](C(=O)NCC(=O)N[C@@H](CCSC)C(=O)N[C@@H](CO)C(=O)N[C@H](C(=O)N[C@@H](Cc4c[nH]c5ccccc45)C(=O)N[C@@H](CO)C(=O)O)[C@@H](C)O)CSSC[C@@H](C(=O)O)NC(=O)[C@H](Cc4ccccc4)NC(=O)[C@H](CCCNC(=N)N)NC(=O)[C@H](C)NC(=O)[C@H](CC(C)C)NC(=O)[C@H](CO)NC(=O)[C@H](CCCNC(=N)N)NC(=O)[C@H](CCCCN)NC(=O)[C@H]([C@@H](C)O)NC3=O)NC2=O)cc1)C(=O)O [AQ1-PEG36-Glu-C13-CH3] | +20^b % | increased renal blood flow; also recorded: good renal blood flow |  |  |  |  |
| CCCCCCCCCCCCCC(=O)NCCO/N=C(\C)c1ccc(C[C@H](NC(=O)CNC(=O)[C@@H]2CSSC[C@@H](C(=O)O)NC(=O)[C@H](Cc3ccccc3)NC(=O)[C@H](CCCNC(=N)N)NC(=O)[C@H](C)NC(=O)[C@H](CC(C)C)NC(=O)[C@H](CO)NC(=O)[C@H](CCCNC(=N)N)NC(=O)[C@H](CCCCN)NC(=O)[C@H]([C@@H](C)O)NC(=O)[C@@H]3CSSC[C@H](NC(=O)[C@H](CCCCN)NC(=O)[C@H](CC(N)=O)NC(=O)[C@H](C)NC(=O)[C@H](CC(C)C)NC(=O)[C@H](C)NC(=O)[C@H](CO)NC(=O)[C@H](Cc4ccc(O)cc4)NC(=O)[C@H](CC(C)C)NC(=O)[C@@H](N)CC(N)=O)C(=O)N[C@@H](CSSC[C@H](NC(=O)[C@H](CC(C)C)NC(=O)[C@H](CCCCN)NC(=O)[C@@H](NC(=O)[C@@H](NC(=O)[C@H](CCC(=O)O)NC(=O)[C@H](CCC(=O)O)NC(=O)[C@H](CCSC)NC(=O)[C@H](Cc4c[nH]c5ccccc45)NC(=O)[C@H](CO)NC(=O)[C@H](C)N)C(C)C)[C@@H](C)CC)C(=O)NCC(=O)N[C@@H](CCCNC(=N)N)C(=O)N[C@@H](CCC(=O)O)C(=O)N[C@@H](CC(C)C)C(=O)N[C@@H](C(C)C)C(=O)N[C@@H](CCCNC(=N)N)C(=O)N[C@@H](C)C(=O)N[C@@H](CCC(N)=O)C(=O)N[C@@H]([C@@H](C)CC)C(=O)N[C@@H](C)C(=O)N[C@@H]([C@@H](C)CC)C(=O)N2)C(=O)N[C@@H](Cc2c[nH]cn2)C(=O)N[C@@H](C(C)C)C(=O)NCC(=O)N3)C(=O)N[C@@H](CO)C(=O)N[C@H](C(=O)N[C@@H](Cc2c[nH]c3ccccc23)C(=O)N[C@@H](CO)C(=O)O)[C@@H](C)O)cc1 [BM25/AN1-C13-CH3] | −100^a % | impaired renal blood flow; also recorded: decreased renal blood flow | fatal |  |  |  |
| AQ1-20kDa PEG: AQ1 relaxin conjugated to PEG with an average MW of 20 kDa (chain 1 XLYSALANKCCHVGCTKRSLARFC; chain 2 ASWMEEVIKLCGRELVRAQIAICGMSTWS; non-natural residues) | +21% |  |  | 1.475 µM·h | 39 nM | increased renal blood flow |
| BM25/AN1: human relaxin 2 with pAcF at B chain position 25 and asparagine at A chain position 1 (SEQ ID NO: 36, 37) (chain 1 NLYSALANKCCHVGCTKRSLARFC; chain 2 ASWMEEVIKLCGRELVRAQIAICG[Phe(4-Ac)]STWS; disulfide (positions not given here); ends not checked) | −20% |  |  |  |  | impaired renal blood flow |
